These results are taken from US20240360126A1, “PYRAZOLO[3,4-B]PYRIDINE COMPOUNDS FOR THE TREATMENT OF AUTOIMMUNE DISEASE” (Hoffmann-La Roche Inc., priority 2021, published 2024).

For the data set, the system named is embryonic stem cells (D3) and 3T3 fibroblasts. Put plainly: mouse Embryonic Stem Cell Test (mEST). The class given is cell-based. To be noted: <0.5 negative, >0.6 positive. From the text: The in vitro mouse Embryonic Stem Cell Test (mEST) assay is an implemented routine assay at Roche. The original EST was developed by Horst Spielmann and his group in 1997 as an in vitro model for the screening of embryotoxicity, based on a blastocyst-derived permanent embryonic mouse ESC (mESC) D3 cell line derived from mouse 129 strains and was validated by European Centre for the Validation of Alternative Methods (ECVAM).
We further optimized and modified the approach allowing for the application of the assay to pharmaceutical compounds.
The cytotoxicity (inhibition of growth) of 3T3 fibroblasts, which represents differentiated cells and the cytotoxicity of undifferentiated embryonic stem cells (D3) after 10 days of substance treatment serve as two assay endpoints. This is determined by the use of dehydrogenase enzymes, which are present in the intact mitochondria of living cells to convert yellow soluble substrate 3-(4,5-dimethythiazol-2-yl)-2,5-diphenyl tetrazolium bromide (MTT) into a dark blue insoluble formazan product, which gets sequestered within the cells and is detected quantitatively using an absorbance reader (570 nm) after solubilizing the cell membrane.
The third endpoint is the inhibition of differentiation of ES cells into myocards which are cardiac muscle cells after 10 days of treatment. The beating of this cells is evaluated by microscopy. […]

Structures are written as SMILES.

As to `Cc1cc(N2CC[C@@H](c3ncc(N4CCOC[C@@H](N)C4)cc3C)[C@H](C)C2)c2cnn(C)c2n1` [Example 28, (6S)-4-[6-[(3S,4R)-1-(1,6-dimethylpyrazolo[3,4-b]pyridin-4-yl)-3-methyl-4-piperidyl]-5-methyl-3-pyridyl]-1,4-oxazepan-6-amine], the “Predictive scores D12_3” value is listed as 0.44.

On to `Cc1cc(N2CC[C@H](c3ccc(N4CCOC[C@@H](N)C4)cn3)[C@@H](C)C2)c2cnn(C)c2n1` [Example 40, (6S)-4-[6-[(3R,4S)-1-(1,6-dimethylpyrazolo[3,4-b]pyridin-4-yl)-3-methyl-4-piperidyl]-3-pyridyl]-1,4-oxazepan-6-amine], for which the “Predictive scores D12_3” value is listed as 0.36.
